Here are results for 19 compounds from PubChem BioAssay AID1159605 (The Scripps Research Institute Molecular Screening Center, 2016).

Each structure is given as a SMILES string. The source made the active and inactive calls.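 How the source made its calls: active means IC50 of 10 µM or lower; inactive means IC50 above 10 µM.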 Bounds are passed on as bounds.

Chain of Mitogen-activated protein kinase kinase kinase 5 (Homo sapiens) (Q99683 whole entry, looked up): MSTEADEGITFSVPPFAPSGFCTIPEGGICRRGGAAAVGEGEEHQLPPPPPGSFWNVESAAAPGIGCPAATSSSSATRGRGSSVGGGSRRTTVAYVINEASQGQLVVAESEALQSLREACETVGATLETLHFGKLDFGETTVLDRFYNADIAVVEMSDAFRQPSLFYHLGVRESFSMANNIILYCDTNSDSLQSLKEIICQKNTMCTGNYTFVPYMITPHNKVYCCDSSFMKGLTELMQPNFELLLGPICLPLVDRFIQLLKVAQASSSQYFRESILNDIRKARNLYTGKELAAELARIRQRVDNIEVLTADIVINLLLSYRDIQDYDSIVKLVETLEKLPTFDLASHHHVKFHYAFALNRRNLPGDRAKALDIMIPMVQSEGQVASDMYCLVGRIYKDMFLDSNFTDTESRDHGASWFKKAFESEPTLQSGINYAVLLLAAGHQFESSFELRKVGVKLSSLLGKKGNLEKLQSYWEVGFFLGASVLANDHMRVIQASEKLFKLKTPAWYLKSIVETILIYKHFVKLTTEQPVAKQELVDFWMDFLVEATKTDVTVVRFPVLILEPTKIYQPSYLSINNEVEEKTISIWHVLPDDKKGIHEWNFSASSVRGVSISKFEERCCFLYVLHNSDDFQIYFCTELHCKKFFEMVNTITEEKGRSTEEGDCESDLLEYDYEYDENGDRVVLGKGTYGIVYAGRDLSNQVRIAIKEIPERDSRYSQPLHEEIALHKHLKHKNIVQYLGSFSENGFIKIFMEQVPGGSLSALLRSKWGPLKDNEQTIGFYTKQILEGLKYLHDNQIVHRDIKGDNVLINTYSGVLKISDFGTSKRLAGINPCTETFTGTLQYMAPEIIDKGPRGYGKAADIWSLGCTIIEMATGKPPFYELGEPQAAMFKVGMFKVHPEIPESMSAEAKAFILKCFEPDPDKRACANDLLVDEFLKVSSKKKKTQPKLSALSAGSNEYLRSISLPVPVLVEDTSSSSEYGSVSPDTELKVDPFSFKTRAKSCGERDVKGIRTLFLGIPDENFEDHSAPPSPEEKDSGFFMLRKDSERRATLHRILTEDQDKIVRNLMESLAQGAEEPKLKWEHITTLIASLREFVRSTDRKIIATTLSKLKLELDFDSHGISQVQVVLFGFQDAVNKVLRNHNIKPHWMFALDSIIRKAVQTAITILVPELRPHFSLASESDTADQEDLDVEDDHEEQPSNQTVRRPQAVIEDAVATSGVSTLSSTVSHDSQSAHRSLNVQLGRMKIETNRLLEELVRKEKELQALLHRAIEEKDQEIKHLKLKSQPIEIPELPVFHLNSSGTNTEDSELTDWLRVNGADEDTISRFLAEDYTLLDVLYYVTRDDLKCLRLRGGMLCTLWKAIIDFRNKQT

This assay has as its target Mitogen-activated protein kinase kinase kinase 5 (Homo sapiens) (UniProt Q99683). Kind of assay: MAP3K5 inhibition concentration-response curves – biochemical, AlphaScreen, MKK6 phosphorylation, dose response (AID 1159605).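 Further: ASK1 phosphorylation of MKK6 substrate detected with anti-phospho-MKK6 antibody beads; inhibitors lower the luminescent signal by blocking MKK6 phosphorylation.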 The conditions noted are these: ASK1 MKK6 phosphorylation, AlphaScreen luminescence. For orientation: In Alpha technology, singlet oxygen from a donor bead excites a nearby acceptor bead.
Usually IC50 stands for the midpoint of a concentration-inhibition curve. With `c1ccc(CN2CCC(Nc3nc(Nc4ccc(N5CCOCC5)cc4)nc4nc[nH]c34)CC2)cc1`, the IC50 was > 19.7 µM (inactive). As to `COc1cc2nc(Nc3cccc(N(C)C)c3)nc(Nc3ccc4c(c3)OCO4)c2cc1OC`, the IC50 is 6.21 µM. The value for `Cc1ccc(-c2ncn(-c3ccc(Nc4nccc(-c5cncc(N6CCOCC6)c5)n4)cc3)n2)cn1` was > 19.2 µM (inactive); that for `c1cnc2ccc(Nc3nc(Nc4ccc(N5CCOCC5)cc4)c4[nH]cnc4n3)cc2c1` was “inactive”. With `CN(C)c1cccc(Nc2nccc(Nc3ccc4c(c3)OCO4)n2)c1`, the IC50 entry is “inactive”. As for `O=C1CCCN1CCCNc1nc(Nc2ccc(-n3ccnc3)cc2)nc2c1ncn2-c1ccsc1`, the IC50 is > 19.9 µM (inactive). The value for `COc1cc2nc(Nc3ccc(N4CCOCC4)cc3)nc(Nc3ccc(OCCN4CCCCC4)cc3)c2cc1OC` was > 17.5 µM (inactive); that for `COc1cc2nc(Nc3ccc(N4CCOCC4)cc3)nc(NC3CC3)c2cc1OC` was “inactive”. As for `COc1cc2nc(Nc3cccc(N(C)C)c3)nc(NCc3cccc(C(F)(F)F)c3)c2cc1OC`, the IC50 was > 18.9 µM (inactive). For `Cc1cnc(-c2csc3ccccc23)nc1Nc1ccc(N2CCOCC2)cc1`, the IC50 is > 20.1 µM (inactive). The value for `COc1ccc(CCNc2nc(Nc3ccc(N4CCOCC4)cc3)nc3cc(OC)c(OC)cc23)cc1` was “inactive”. In the case of `Cc1cc(NC2CCN(Cc3ccccc3)CC2)nc(Nc2ccc(N3CCOCC3)cc2)n1` it was “inactive”. Regarding `Cc1cc(Nc2ccc3c(c2)OCO3)nc(N2CCN(Cc3ccc4c(c3)OCO4)CC2)n1`, the IC50 result was “inactive”. In the case of `Cc1cnc(-c2ccc(C(N)=O)cc2)nc1Nc1ccc(N2CCOCC2)cc1` it was “inactive”; in that of `Cc1cc(Nc2ccc3c(c2)OCO3)nc(Nc2ccc(N3CCOCC3)cc2)n1`, “inactive”. Turning to `FC(F)(F)c1cc(-c2ccnc(Nc3ccc(N4CCOCC4)cc3)n2)cc(N2CCOCC2)c1`, the IC50 is > 19.2 µM (inactive). In the case of `Cc1cccc(Nc2ccc3c(cnn3-c3cccc(C(=O)NCCN4CCN(CC5CC5)CC4)c3)c2)c1Cl` it was > 19.2 µM (inactive); in that of `c1ccc(-c2ncn[nH]2)c(Nc2ccnc(Nc3ccc(N4CCOCC4)cc3)c2)c1`, > 19.2 µM (inactive). For `c1ccc(CCn2nc(-c3ccnc(Nc4ccc(N5CCOCC5)cc4)c3)cc2Nc2ccccc2)cc1`, the IC50 was > 19.2 µM (inactive).
